{"source": "patent US8796292B2", "about": "“Selective antibacterials for clostridium difficile infections” (GLSynthesis Inc., priority 2009, dated 2014)", "assay_in_all_cases": "agar dilution MIC assay of anaerobic bacteria", "key": {"L. casei": {"tested_on": "L. casei", "type": "cell-based, Lactobacillus casei", "settings": "Lacticaseibacillus casei", "how_it_was_run": "(§1)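 Growth inhibition is scored as absence of colony formation on agar containing serial drug dilutions, following CLSI anaerobe guidance. Plates receive 500-1000 CFU and incubate anaerobically at 35° C. for 48 hours.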"}, "Bi. brevi": {"tested_on": "Bi. brevi", "type": "cell-based, Bifidobacterium brevi", "how_it_was_run": "as §1"}, "Bi. longum": {"tested_on": "Bi. longum", "type": "cell-based, Bifidobacterium longum", "how_it_was_run": "as §1"}, "E. lentum": {"tested_on": "E. lentum", "type": "cell-based, Eubacterium lentum", "how_it_was_run": "as §1"}, "C. difficile": {"tested_on": "C. difficile", "type": "cell-based, Clostridium difficile", "settings": "Clostridioides difficile, read-out: MIC", "how_it_was_run": "as §1"}, "L. acidophilus": {"tested_on": "L. acidophilus", "type": "cell-based", "settings": "Lactobacillus acidophilus", "how_it_was_run": "as §1"}, "Ba. fragilis": {"tested_on": "Ba. fragilis", "type": "cell-based", "settings": "Bacteroides fragilis", "how_it_was_run": "as §1"}}, "note": "Where two headings read alike, the source gives them in different places.", "data": [{"smiles": "Cc1ncc([N+](=O)[O-])n1CCO", "note": "[metronidazole, reference compound]", "values": [{"measurement": "MIC", "setting": "L. casei; Micromyx Number 1722, Table 1", "value": "> 16", "unit": "µg/mL"}, {"measurement": "MIC", "setting": "L. casei; Strain no. 1722 (ATCC strain), Table 3", "value": "> 32", "unit": "µg/mL"}, {"measurement": "MIC", "setting": "Bi. brevi; Bifidobacterium breve, Bi. Breve, Strain no. 3967 (ATCC strain), Table 3", "value": 4, "unit": "µg/mL"}, {"measurement": "MIC", "setting": "Bi. brevi; Bifidobacterium, Bi. brevi, Micromyx Number 3967, Table 1", "value": "> 16", "unit": "µg/mL"}, {"measurement": "MIC", "setting": "Bi. longum; Bi. Longum, Strain no. 3968 (ATCC strain), Table 3", "value": 4, "unit": "µg/mL"}, {"measurement": "MIC", "setting": "Bi. longum; Bifidobacterium longum, Bi. longum, Micromyx Number 3968, Table 1, read-out: MIC", "value": 4, "unit": "µg/mL"}, {"measurement": "MIC", "setting": "E. lentum; Eggerthella lenta, E. lentum, Micromyx Number 1274, Table 1, read-out: MIC", "value": 0.5, "unit": "µg/mL"}, {"measurement": "MIC", "setting": "E. lentum; Eu. Lentum, Strain no. 1274 (ATCC strain), Table 3", "value": 0.5, "unit": "µg/mL"}, {"measurement": "MIC", "setting": "C. difficile; C. diff. Strain no. 18285, Table 4", "value": 2, "unit": "µg/mL"}, {"measurement": "MIC", "setting": "C. difficile; C. diff. Strain no. 19265, Table 4", "value": 0.5, "unit": "µg/mL"}, {"measurement": "MIC", "setting": "C. difficile; C. diff. Strain no. 19273, Table 4", "value": 0.25, "unit": "µg/mL"}, {"measurement": "MIC", "setting": "C. difficile; C. diff. Strain no. 19281, Table 4", "value": 0.5, "unit": "µg/mL"}, {"measurement": "MIC", "setting": "C. difficile; C. diff. Strain no. 19291, Table 4", "value": 0.5, "unit": "µg/mL"}, {"measurement": "MIC", "setting": "C. difficile; C. diff. Strain no. 19369, Table 4", "value": 0.5, "unit": "µg/mL"}, {"measurement": "MIC", "setting": "C. difficile; C. diff. Strain no. 19382, Table 4", "value": 0.5, "unit": "µg/mL"}, {"measurement": "MIC", "setting": "C. difficile; C. diff. Strain no. 19540, Table 4", "value": 4, "unit": "µg/mL"}, {"measurement": "MIC", "setting": "C. difficile; C. diff. Strain no. 19580, Table 4", "value": 2, "unit": "µg/mL"}, {"measurement": "MIC", "setting": "C. difficile; C. diff. Strain no. 19680, Table 4", "value": 4, "unit": "µg/mL"}, {"measurement": "MIC", "setting": "C. difficile; C. diff. Strain no. 19681, Table 4", "value": 1, "unit": "µg/mL"}, {"measurement": "MIC", "setting": "C. difficile; C. diff. Strain no. 19683, Table 4", "value": 2, "unit": "µg/mL"}, {"measurement": "MIC", "setting": "C. difficile; C. diff. Strain no. 19687, Table 4", "value": 4, "unit": "µg/mL"}, {"measurement": "MIC", "setting": "C. difficile; C. diff. Strain no. 20066, Table 4", "value": 4, "unit": "µg/mL"}, {"measurement": "MIC", "setting": "C. difficile; C. diff. Strain no. 20152, Table 4", "value": 1, "unit": "µg/mL"}, {"measurement": "MIC", "setting": "C. difficile; C. diff. Strain no. 20307, Table 4", "value": 0.5, "unit": "µg/mL"}, {"measurement": "MIC", "setting": "C. difficile; C. diff. Strain no. 20494, Table 4", "value": 1, "unit": "µg/mL"}, {"measurement": "MIC", "setting": "C. difficile; C. diff. Strain no. 20680, Table 4", "value": 4, "unit": "µg/mL"}, {"measurement": "MIC", "setting": "C. difficile; C. diff. Strain no. 20934, Table 4", "value": 1, "unit": "µg/mL"}, {"measurement": "MIC", "setting": "C. difficile; C. diff. Strain no. 21099, Table 4", "value": 2, "unit": "µg/mL"}, {"measurement": "MIC", "setting": "C. difficile; C. diff., Micromyx Number 3579, Table 2", "value": 0.5, "unit": "µg/mL"}, {"measurement": "MIC", "setting": "C. difficile; C. diff., Micromyx Number 3580, Table 2", "value": 0.5, "unit": "µg/mL"}, {"measurement": "MIC", "setting": "C. difficile; C. diff., Micromyx Number 3581, Table 2", "value": 0.5, "unit": "µg/mL"}, {"measurement": "MIC", "setting": "C. difficile; C. diff., Micromyx Number 3582 (ATCC strain), Table 2", "value": 0.5, "unit": "µg/mL"}, {"measurement": "MIC", "setting": "C. difficile; C. diff., Strain no. 3580, Table 3", "value": 1, "unit": "µg/mL"}, {"measurement": "MIC", "setting": "C. difficile; C. diff., Strain no. 3581, Table 3", "value": 1, "unit": "µg/mL"}, {"measurement": "MIC", "setting": "C. difficile; C. diff., Strain no. 3582, Table 3", "value": 0.5, "unit": "µg/mL"}, {"measurement": "MIC", "setting": "C. difficile; C. diff., Strain no. 3584, Table 3", "value": 0.5, "unit": "µg/mL"}, {"measurement": "MIC", "setting": "C. difficile; C. diff., Strain no. 3585, Table 3", "value": 1, "unit": "µg/mL"}, {"measurement": "MIC", "setting": "C. difficile; C. diff., Strain no. 3586, Table 3", "value": 0.12, "unit": "µg/mL"}, {"measurement": "MIC", "setting": "C. difficile; C. diff., Strain no. 3587, Table 3", "value": 1, "unit": "µg/mL"}, {"measurement": "MIC", "setting": "C. difficile; C. diff., Strain no. 3588, Table 3", "value": 0.5, "unit": "µg/mL"}, {"measurement": "MIC", "setting": "C. difficile; C. diff., Strain no. 3589, Table 3", "value": 2, "unit": "µg/mL"}, {"measurement": "MIC", "setting": "C. difficile; C. diff., Strain no. 4381 (ATCC strain), Table 3", "value": 0.5, "unit": "µg/mL"}, {"measurement": "MIC", "setting": "C. difficile; C. difficile, Micromyx Number 1209, Table 1", "value": 0.5, "unit": "µg/mL"}, {"measurement": "MIC", "setting": "C. difficile; C. difficile, Micromyx Number 3579, Table 1", "value": 0.25, "unit": "µg/mL"}, {"measurement": "MIC", "setting": "C. difficile; C. difficile, Micromyx Number 3580, Table 1", "value": 0.5, "unit": "µg/mL"}, {"measurement": "MIC", "setting": "C. difficile; C. difficile, Micromyx Number 3581, Table 1", "value": 1, "unit": "µg/mL"}, {"measurement": "MIC", "setting": "C. difficile; C. difficile, Micromyx Number 3582, Table 1", "value": 0.25, "unit": "µg/mL"}, {"measurement": "MIC", "setting": "C. difficile; C. difficile, Micromyx Number 3584, Table 1", "value": 0.5, "unit": "µg/mL"}, {"measurement": "MIC", "setting": "C. difficile; C. difficile, Micromyx Number 3585, Table 1", "value": 0.5, "unit": "µg/mL"}, {"measurement": "MIC", "setting": "C. difficile; C. difficile, Micromyx Number 3586, Table 1", "value": 0.5, "unit": "µg/mL"}, {"measurement": "MIC", "setting": "C. difficile; C. difficile, Micromyx Number 3587, Table 1", "value": 1, "unit": "µg/mL"}, {"measurement": "MIC", "setting": "C. difficile; C. difficile, Micromyx Number 3588, Table 1", "value": 0.5, "unit": "µg/mL"}, {"measurement": "MIC", "setting": "C. difficile; C. difficile, Micromyx Number 3589, Table 1", "value": 1, "unit": "µg/mL"}, {"measurement": "MIC", "setting": "C. difficile; C. difficile, Micromyx Number 3590, Table 1", "value": 0.5, "unit": "µg/mL"}, {"measurement": "MIC", "setting": "C. difficile; C. difficile, Micromyx Number 3591, Table 1", "value": 0.5, "unit": "µg/mL"}, {"measurement": "MIC", "setting": "C. difficile; C. difficile, Micromyx Number 3593, Table 1", "value": 0.5, "unit": "µg/mL"}, {"measurement": "MIC", "setting": "C. difficile; C. difficile, Micromyx Number 3594, Table 1", "value": 1, "unit": "µg/mL"}, {"measurement": "MIC", "setting": "C. difficile; C. difficile, Micromyx Number 3595, Table 1", "value": 1, "unit": "µg/mL"}, {"measurement": "MIC", "setting": "C. difficile; C. difficile, Micromyx Number 4381 (ATCC strain), Table 1", "value": 0.5, "unit": "µg/mL"}, {"measurement": "MIC", "setting": "L. acidophilus; Micromyx Number 0681, Table 1", "value": "> 16", "unit": "µg/mL"}, {"measurement": "MIC", "setting": "L. acidophilus; Strain no. 0681, Table 3", "value": "> 32", "unit": "µg/mL"}, {"measurement": "MIC", "setting": "Ba. fragilis; B. fragilis, Micromyx Number 0123 (ATCC strain), Table 2", "value": 0.5, "unit": "µg/mL"}, {"measurement": "MIC", "setting": "Ba. fragilis; B. fragilis, Strain no. 0123 (ATCC strain), Gram-negative (control), Table 3", "value": 0.5, "unit": "µg/mL"}, {"measurement": "MIC", "setting": "Ba. fragilis; Ba. fragilis, Micromyx Number 0123 (ATCC strain), Gram negative, Table 1", "value": 1, "unit": "µg/mL"}]}]}
